In ChEMBL document CHEMBL5316308, “BET-HDAC Dual Inhibitors for Combinational Treatment of Breast Cancer and Concurrent Candidiasis” (J Med Chem, 2023):
pIC50: −log10 of the molar value. ≈ marks a conversion by molar mass, not a printed value. Calls of active or inactive are those of the source. The calls are words filed in the database; no cut-off is given here.

Columns and labels:
MDA-MB-231 [1] = experiment: Induction of apoptosis in human MDA-MB-231 cells assessed as late apoptotic cells at 5 uM incubated for 48 hrs by Annexin V-FITC/PI staining based flow cytometry relative to control; assay type: functional
Candida albicans [2] = experiment: Synergistic antifungal activity against Candida albicans 0304103 infected in ICR mouse assessed as decrease in kidney fungal load at 20 mg/kg, ip for 5 consecutive days; assay type: functional, organism-based; conditions: time 5.0 day
MDA-MB-231 [3] = experiment: Induction of apoptosis in human MDA-MB-231 cells assessed as late apoptotic cells at 2.5 uM incubated for 48 hrs by Annexin V-FITC/PI staining based flow cytometry relative to control; assay type: functional
MDA-MB-231 [4] = experiment: Induction of apoptosis in human MDA-MB-231 cells assessed as late apoptotic cells at 10 uM incubated for 48 hrs by Annexin V-FITC/PI staining based flow cytometry relative to control; assay type: functional
Candida albicans [5] = assay type: functional, 0304103; conditions: time 48 hrs
Description: Synergistic antifungal activity against azole-resistant Candida albicans 0304103 assessed as fractional inhibitory concentration index measured after 48 hrs in presence of FLC by CLSI based micro-dilution broth method

HL-60 = experiment: Antiproliferative activity against human HL-60 cells assessed as cell growth inhibition incubated for 24 hrs by CCK-8 assay; assay type: functional, cell-based; conditions: HL-60, 24 h
K562 = experiment: Antiproliferative activity against human K562 cells assessed as cell growth inhibition incubated for 24 hrs by CCK-8 assay; assay type: functional, cell-based; conditions: K562, 24 h
[6] = target: Bromodomain-containing protein 4 (Homo sapiens, UniProt O60885); experiment: Inhibition of recombinant BRD4 (unknown origin) incubated for 120 mins by TR-FRET assay relative to control; design: concentration or dose not given beside the values
Histone deacetylase 1 = Histone deacetylase 1 (Homo sapiens, UniProt Q13547); experiment: Inhibition of full-length recombinant human HDAC1 (1 to 482 residues) expressed in baculovirus infected insect cells using Ac-Leu-Gly-Lys(Ac)-AMC as substrate incubated for 30 mins by fluorescence based assay; design: species or system Insect cell
Chain of Histone deacetylase 1 (Q13547 whole entry, the tested form may be a part): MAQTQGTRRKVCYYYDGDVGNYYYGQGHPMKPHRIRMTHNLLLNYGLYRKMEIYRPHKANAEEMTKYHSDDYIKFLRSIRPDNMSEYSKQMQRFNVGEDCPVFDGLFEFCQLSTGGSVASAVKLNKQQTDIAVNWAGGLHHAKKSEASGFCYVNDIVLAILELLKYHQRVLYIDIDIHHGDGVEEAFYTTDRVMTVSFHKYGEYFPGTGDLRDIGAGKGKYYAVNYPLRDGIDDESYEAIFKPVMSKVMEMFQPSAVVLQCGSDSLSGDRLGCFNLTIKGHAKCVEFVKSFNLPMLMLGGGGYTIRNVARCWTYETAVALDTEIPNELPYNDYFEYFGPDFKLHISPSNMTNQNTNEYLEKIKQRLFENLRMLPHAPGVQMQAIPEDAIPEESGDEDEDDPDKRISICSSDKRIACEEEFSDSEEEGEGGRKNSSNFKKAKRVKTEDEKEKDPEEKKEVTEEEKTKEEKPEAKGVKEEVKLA

MDA-MB-231 [7] = experiment: Antiproliferative activity against human MDA-MB-231 cells assessed as cell growth inhibition incubated for 24 hrs by CCK-8 assay; assay type: functional, cell-based; conditions: MDA-MB-231, 24 h
HEL = experiment: Antiproliferative activity against human HEL cells assessed as cell growth inhibition incubated for 24 hrs by CCK-8 assay; assay type: functional, cell-based
Cryptococcus neoformans = experiment: Antifungal activity against Cryptococcus neoformans H99 assessed as fungal growth inhibition measured after 48 hrs by CLSI based micro-dilution broth method; assay type: functional
Candida albicans [8] = experiment: microbe, parasite or virus in culture; assay type: functional; conditions: 0304103, time 48 hrs
Description: Synergistic antifungal activity against azole-resistant Candida albicans 0304103 assessed as fungal growth inhibition measured after 48 hrs in presence of FLC by CLSI based micro-dilution broth method

Candida albicans [9] = experiment: microbe, parasite or virus in culture; assay type: functional; conditions: 0304103, time 48 hrs; remark: listed apart in the source
Description: Synergistic antifungal activity against azole-resistant Candida albicans 0304103 assessed as fungal growth inhibition measured after 48 hrs by CLSI based micro-dilution broth method

Candida albicans [10] = experiment: Antifungal activity FLC-resistant Candida albicans 0304103 assessed as hyphal formation at 32 ug/ml incubated for 3 hrs by inverse fluorescent microscopy; assay type: functional, organism-based; conditions: dose 32.0 µg/ml
Candida albicans [11] = experiment: Antifungal activity against azole-resistant Candida albicans 0304103 assessed as fungal growth inhibition at 1 to 4 ug/ml measured upto 24 hrs by absorbance based assay; assay type: functional, organism-based; conditions: dose 1-4 µg/ml

| SMILES | Activity (MDA-MB-231 [1]) [%] | Activity (Candida albicans [2]) | Activity (MDA-MB-231 [3]) [%] | Activity (MDA-MB-231 [4]) [%] | fractional inhibitory concentration index (FICI) (Candida albicans [5]) | pIC50 (HL-60) | pIC50 (K562) | inhibition [6] [%] | pIC50 (Histone deacetylase 1) | pIC50 (MDA-MB-231 [7]) | pIC50 (HEL) | MIC80 (Cryptococcus neoformans) [µg/mL] | MIC80 (Candida albicans [8]) [µg/mL] | MIC80 (Candida albicans [9]) [µg/mL] | Activity (Candida albicans [10]) | Activity (Candida albicans [11]) |
| --- | --- | --- | --- | --- | --- | --- | --- | --- | --- | --- | --- | --- | --- | --- | --- | --- |
| O=C(CCCCCCC(=O)Nc1ccccc1)NO [VORINOSTAT] | 22.96 | inactive | 16.91 | 27.19 | – | – | – | – | – | – | – | – | – | – | – | – |
| COc1cc2c(cc1-c1c(C)noc1C)[nH]c1nc(C)nc(Nc3cccc(C(=O)NO)c3)c12 | – | – | – | – | >2 | < 4.30 | 5.42 | 14.8 | < 5.70 | 5.01 | < 4.30 | > 64 | > 64 | > 64 | – | – |
| COc1cc2c(cc1-c1c(C)noc1C)[nH]c1nc(C)nc(NCCCCCC(=O)Nc3ccc(/C=C/C(=O)NO)cc3)c12 | – | – | – | – | 0.078 | 5.51 | 5.22 | 58.3 | 5.96 | 4.80 | < 4.30 | 4 (≈ 6.69 µM) | 1 (≈ 1.67 µM) | > 64 | – | – |
| COc1cc2c(cc1-c1c(C)noc1C)[nH]c1nc(C)nc(NCc3ccc(C(=O)NO)cc3)c12 | – | – | – | – | 0.062 | 5.62 | 5.74 | 97.5 | 6.35 | 5.08 | 5.57 | 64 (≈ 135 µM) | 2 (≈ 4.23 µM) | > 64 | – | – |
| COc1cc2c(cc1-c1c(C)noc1C)[nH]c1nc(C)nc(NCCCCCCCC(=O)NO)c12 | – | – | – | – | 0.12 | < 4.30 | 5.52 | 86.2 | 6.70 | 5.11 | 5.48 | 64 (≈ 133 µM) | 4 (≈ 8.32 µM) | > 64 | – | – |
| COc1cc2c(cc1-c1c(C)noc1C)[nH]c1nc(C)nc(NCCCCCC(=O)Nc3ccc(C(=O)NO)cc3)c12 | – | – | – | – | 0.047 | 5.19 | 4.74 | 79.7 | 7.07 | 4.80 | < 4.30 | 4 (≈ 7 µM) | 1 (≈ 1.75 µM) | > 64 | – | – |
| COc1cc2c(cc1-c1c(C)noc1C)[nH]c1ncnc(NCCCCC(=O)NO)c12 | – | – | – | – | >2 | < 4.30 | < 4.30 | 11.1 | < 5.70 | < 4.30 | < 4.30 | > 64 | > 64 | > 64 | – | – |
| COc1cc2c(cc1-c1c(C)noc1C)[nH]c1ncnc(NCCCCCC(=O)NO)c12 | – | – | – | – | 0.5 | < 4.30 | 4.77 | 64.7 | 6.69 | < 4.30 | 4.89 | 32 (≈ 73 µM) | 0.5 (≈ 1.14 µM) | > 64 | – | – |
| COc1cc2c(cc1-c1c(C)noc1C)[nH]c1ncnc(NCCCCCC(=O)Nc3ccc(/C=C/C(=O)NO)cc3)c12 | – | – | – | – | 0.26 | 5.42 | 5.09 | 56.1 | 6.60 | 4.85 | 5.05 | 2 (≈ 3.43 µM) | 1 (≈ 1.71 µM) | > 64 | – | – |
| COc1cc2c(cc1-c1c(C)noc1C)[nH]c1nc(C)nc(NCCCCCC(=O)NO)c12 | – | – | – | – | 0.16 | 5.10 | 4.77 | 90.8 | 6.91 | < 4.30 | 5.15 | 32 (≈ 70.7 µM) | 2 (≈ 4.42 µM) | > 64 | – | – |
| COc1cc2c(cc1-c1c(C)noc1C)[nH]c1nc(C)nc(Nc3ccc(C(=O)NO)cc3)c12 | – | – | – | – | 0.07 | 5.64 | < 4.30 | 79.8 | 6.40 | 5.03 | < 4.30 | > 64 | 0.5 (≈ 1.09 µM) | > 64 | – | – |
| OC(Cn1cncn1)(Cn1cncn1)c1ccc(F)cc1F | – | – | – | – | – | – | – | – | – | – | – | – | – | – | Active | inactive |
| COc1cc2c(cc1-c1c(C)noc1C)[nH]c1ncnc(Nc3ccc(/C=C/C(=O)NO)cc3)c12 | – | – | – | – | 0.25 | < 4.30 | 4.96 | 67.5 | < 5.70 | 5.20 | < 4.30 | 16 (≈ 34 µM) | 8 (≈ 17 µM) | > 64 | – | – |
| COc1cc2c(cc1-c1c(C)noc1C)[nH]c1ncnc(NCCCCCCCC(=O)NO)c12 | – | – | – | – | 0.062 | < 4.30 | 5.05 | 85.8 | 7.43 | 5.42 | 4.82 | 2 (≈ 4.29 µM) | 2 (≈ 4.29 µM) | > 64 | – | – |
| COc1cc2c(cc1-c1c(C)noc1C)[nH]c1nc(C)nc(Nc3ccc(/C=C/C(=O)NO)cc3)c12 | – | – | – | – | 0.13 | < 4.30 | < 4.30 | 55.2 | 5.92 | 4.96 | < 4.30 | 16 (≈ 33 µM) | 0.5 (≈ 1.03 µM) | > 64 | – | – |
| COc1cc2c(cc1-c1c(C)noc1C)[nH]c1ncnc(Nc3ccc(C(=O)NO)cc3)c12 | – | – | – | – | 0.25 | 5.17 | < 4.30 | 53.4 | 6.01 | 4.72 | < 4.30 | 64 (≈ 144 µM) | 8 (≈ 18 µM) | 64 (≈ 144 µM) | – | – |
